Laboratory results as given in patent publication US11136317B2, “NADPH oxidase 4 inhibitors” (ACTELION PHARMACEUTICALS LTD, priority 2015, dated 2021).

Molecular target: T1, human NOX4 (Homo sapiens, UniProt Q9NPH5)
T1 construct: The full-length human NOX4 (NM_016931.3) transcript was cloned; expressed in transfected cells
T1 sequence (Q9NPH5 1-578): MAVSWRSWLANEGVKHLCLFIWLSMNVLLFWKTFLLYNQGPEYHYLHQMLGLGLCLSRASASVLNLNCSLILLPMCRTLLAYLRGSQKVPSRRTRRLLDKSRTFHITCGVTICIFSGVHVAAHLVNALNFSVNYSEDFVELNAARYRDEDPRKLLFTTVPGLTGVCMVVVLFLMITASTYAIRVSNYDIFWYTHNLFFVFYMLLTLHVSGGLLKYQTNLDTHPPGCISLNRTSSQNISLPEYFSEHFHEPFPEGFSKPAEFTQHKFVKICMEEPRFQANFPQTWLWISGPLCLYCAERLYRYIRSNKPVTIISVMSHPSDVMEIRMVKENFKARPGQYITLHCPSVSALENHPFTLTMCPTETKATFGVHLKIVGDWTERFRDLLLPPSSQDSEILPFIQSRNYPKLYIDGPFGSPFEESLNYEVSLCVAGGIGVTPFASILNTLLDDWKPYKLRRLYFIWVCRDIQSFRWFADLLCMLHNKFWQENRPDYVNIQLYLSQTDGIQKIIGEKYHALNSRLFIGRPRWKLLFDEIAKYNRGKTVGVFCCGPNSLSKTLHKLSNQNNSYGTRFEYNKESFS
T1 sequence (P13498 1-195 partner): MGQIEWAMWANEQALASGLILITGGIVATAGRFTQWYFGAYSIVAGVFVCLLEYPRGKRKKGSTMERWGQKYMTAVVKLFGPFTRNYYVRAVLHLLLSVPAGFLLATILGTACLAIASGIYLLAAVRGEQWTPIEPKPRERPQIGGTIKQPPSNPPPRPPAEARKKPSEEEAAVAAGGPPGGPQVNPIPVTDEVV
Assay: Amplex Red activity assay (cellular H2O2 formation in hNOX4 T-REx-293 cells)
Type: cell-based
Details: tet-induced 24 h, extracellular H2O2 by Amplex Red, 60 min 25° C., geometric mean if determined several times
Method in brief: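 Tet-induced (1 μg/mL, 24 h) HEK293 T-REx cells stably expressing full-length human NOX4, 20 000 cells/well, exposed to compounds (10 concentrations, 50 μM to 100 nM; 1.25% DMSO) for 60 min at 25°C. Extracellular H2O2 detected by Amplex Red resorufin fluorescence (ex 550/em 600 nm) versus vehicle; IC50 calculated.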

Which IC50 does the source give for `O=C(Nc1ccc2oc(N3CCOCC3)nc2c1)c1ccc2c(c1)OCO2` [Example 136, Benzo[1,3]dioxole-5-carboxylic acid (2-morpholin-4-yl-benzooxazol-5-yl)-amide] here?
Its IC50 is 1280 nM.

With `COC1CCN(c2nc3cc(NC(=O)c4ccc5c(c4)CCCO5)ccc3o2)CC1` [Example 152, Chroman-6-carboxylic acid [2-(4-methoxy-piperidin-1-yl)-benzooxazol-5-yl]-amide] as the compound, how does the IC50 read?
Its IC50 is 1350 nM.

`O=C(Nc1ccc2oc(N3CCCCC34COC4)nc2c1)c1ccc2c(c1)CCO2` [Example 26, 2,3-Dihydro-benzofuran-5-carboxylic acid [2-(2-oxa-5-aza-spiro[3.5]non-5-yl)-benzooxazol-5-yl]-amide] was tested. Which IC50 did it give?
Its IC50 is 1490 nM.

`O=C(Nc1ccc2oc(N3CCC4(CC3)COC4)nc2c1)c1ccc2c(c1)CCO2` [Example 50, 2,3-Dihydro-benzofuran-5-carboxylic acid [2-(2-oxa-7-aza-spiro[3.5]non-7-yl)-benzooxazol-5-yl]-amide] was tested. Which IC50 did it give?
The IC50 was 451 nM.

Which IC50 does the source give for `CC(C)OC1CN(c2nc3cc(NC(=O)c4ccc5c(c4)CCO5)ccc3o2)C1` [Example 44, 2,3-Dihydro-benzofuran-5-carboxylic acid [2-(3-isopropoxy-azetidin-1-yl)-benzooxazol-5-yl]-amide] here?
Its IC50 is 1140 nM.

Which IC50 does the source give for `O=C(Nc1ccc2oc(N3CCC34CCC4)nc2c1)c1ccc2c(c1)CCCO2` [Example 142, Chroman-6-carboxylic acid [2-(1-aza-spiro[3.3]hept-1-yl)-benzooxazol-5-yl]-amide] here?
Its IC50 is 891 nM.

`O=C(Nc1ccc2oc(N3CCCC(F)(F)C3)nc2c1)c1ccc2c(c1)OCO2` [Example 130, Benzo[1,3]dioxole-5-carboxylic acid [2-(3,3-difluoro-piperidin-1-yl)-benzooxazol-5-yl]-amide] was tested. Which IC50 did it give?
Its IC50 is 991 nM.

How did the IC50 turn out when `O=C(Nc1ccc2oc(N3CCC(O)CC3)nc2c1)c1ccc2c(c1)CCO2` [Example 48, 2,3-Dihydro-benzofuran-5-carboxylic acid [2-(4-hydroxy-piperidin-1-yl)-benzooxazol-5-yl]-amide] was run?
The IC50 was 448 nM.

For `O=C(Nc1ccc2oc(N3CCN(C4COC4)CC3)nc2c1)c1ccc2c(c1)CCO2` [Example 53, 2,3-Dihydro-benzofuran-5-carboxylic acid [2-(4-oxetan-3-yl-piperazin-1-yl)-benzooxazol-5-yl]-amide], which IC50 is on record?
Its IC50 is 913 nM.

For `COC1CCN(c2nc3cc(NC(=O)c4ccc5c(c4)OCCO5)ccc3o2)CC1` [Example 169, 2,3-Dihydro-benzo[1,4]dioxine-6-carboxylic acid [2-(4-methoxy-piperidin-1-yl)-benzooxazol-5-yl]-amide], which IC50 is on record?
The IC50 was 793 nM.

`O=C(Nc1ccc2c(c1)OCCO2)c1ccc2sc(N3CCC34CCOC4)nc2c1` (centres unmarked) [Example 208, 2-(6-Oxa-1-aza-spiro[3.4]oct-1-yl)-benzothiazole-5-carboxylic acid (2,3-dihydro-benzo[1,4]dioxin-6-yl)-amide] was tested. Which IC50 did it give?
Its IC50 is 2710 nM.

`O=C(Nc1ccc2oc(N3CCCC34COC4)nc2c1)c1ccc2c(c1)OCCO2` [Example 165, 2,3-Dihydro-benzo[1,4]dioxine-6-carboxylic acid [2-(2-oxa-5-aza-spiro[3.4]oct-5-yl)-benzooxazol-5-yl]-amide] was tested. Which IC50 did it give?
Its IC50 is 764 nM.

Which IC50 does the source give for `CN(c1nc2cc(NC(=O)c3ccc4c(c3)CCO4)ccc2s1)C1CCN(C2COC2)CC1` [Example 100, 2,3-Dihydro-benzofuran-5-carboxylic acid {2-[methyl-(1-oxetan-3-yl-piperidin-4-yl)-amino]-benzothiazol-5-yl}-amide] here?
The IC50 was 3390 nM.

How did the IC50 turn out when `O=C(Nc1ccc2oc(N3CCC(F)(F)CC3)nc2c1)c1ccc2c(c1)CCO2` [Example 7, 2,3-Dihydro-benzofuran-5-carboxylic acid [2-(4,4-difluoro-piperidin-1-yl)-benzooxazol-5-yl]-amide] was run?
Its IC50 is 358 nM.

With `O=C(Nc1ccc2sc(N3CC(O)C3)nc2c1)c1ccc2c(c1)CCO2` [Example 109, 2,3-Dihydro-benzofuran-5-carboxylic acid [2-(3-hydroxy-azetidin-1-yl)-benzothiazol-5-yl]-amide] as the compound, how does the IC50 read?
The IC50 was 1780 nM.

With `CC1(O)CN(c2nc3cc(NC(=O)c4ccc5c(c4)CCO5)ccc3s2)C1` [Example 96, 2,3-Dihydro-benzofuran-5-carboxylic acid [2-(3-hydroxy-3-methyl-azetidin-1-yl)-benzothiazol-5-yl]-amide] as the compound, how does the IC50 read?
Its IC50 is 2670 nM.

How did the IC50 turn out when `COC1CCN(c2nc3cc(NC(=O)c4ccc5c(c4)CCO5)ccc3s2)C1` (centres unmarked) [Example 94, 2,3-Dihydro-benzofuran-5-carboxylic acid [2-(3-methoxy-pyrrolidin-1-yl)-benzothiazol-5-yl]-amide] was run?
Its IC50 is 3290 nM.

How did the IC50 turn out when `O=C(Nc1ccc2oc(N3CC4(CCCCO4)C3)nc2c1)c1ccc2c(c1)CCO2` [Example 34, 2,3-Dihydro-benzofuran-5-carboxylic acid [2-(5-oxa-2-aza-spiro[3.5]non-2-yl)-benzooxazol-5-yl]-amide] was run?
Its IC50 is 1220 nM.

With `CC(C)(O)C1CN(c2nc3cc(NC(=O)c4ccc5c(c4)CCO5)ccc3o2)C1` [Example 65, 2,3-Dihydro-benzofuran-5-carboxylic acid {2-[3-(1-hydroxy-1-methyl-ethyl)-azetidin-1-yl]-benzooxazol-5-yl}-amide] as the compound, how does the IC50 read?
The IC50 was 851 nM.

Which IC50 does the source give for `CCN(CC)c1nc2cc(NC(=O)c3ccc4c(c3)CCO4)ccc2o1` [Example 6, 2,3-Dihydro-benzofuran-5-carboxylic acid (2-diethylamino-benzooxazol-5-yl)-amide] here?
Its IC50 is 559 nM.

Which IC50 does the source give for `O=C(Nc1ccc2oc(N3CCC34CCC4)nc2c1)c1ccc2c(c1)CCO2` [Example 35, 2,3-Dihydro-benzofuran-5-carboxylic acid [2-(1-aza-spiro[3.3]hept-1-yl)-benzooxazol-5-yl]-amide] here?
The IC50 was 379 nM.

For `CN1CCOc2ccc(C(=O)Nc3ccc4oc(N5CCCC(F)(F)C5)nc4c3)cc21` [Example 188, 4-Methyl-3,4-dihydro-2H-benzo[1,4]oxazine-6-carboxylic acid [2-(3,3-difluoro-piperidin-1-yl)-benzooxazol-5-yl]-amide], which IC50 is on record?
Its IC50 is 3640 nM.

How did the IC50 turn out when `O=C(Nc1ccc2oc(N3CCCC3)nc2c1)c1ccc2c(c1)OCCO2` [Example 164, 2,3-Dihydro-benzo[1,4]dioxine-6-carboxylic acid (2-pyrrolidin-1-yl-benzooxazol-5-yl)-amide] was run?
The IC50 was 1280 nM.

How did the IC50 turn out when `O=C(Nc1ccc2oc(N3CC4(CCOCC4)C3)nc2c1)c1ccc2c(c1)CCO2` [Example 30, 2,3-Dihydro-benzofuran-5-carboxylic acid [2-(7-oxa-2-aza-spiro[3.5]non-2-yl)-benzooxazol-5-yl]-amide] was run?
Its IC50 is 1230 nM.

`O=C(Nc1ccc2oc(N3CCC[C@H](O)C3)nc2c1)c1ccc2c(c1)CCO2` [Example 43, 2,3-Dihydro-benzofuran-5-carboxylic acid [2-((S)-3-hydroxy-piperidin-1-yl)-benzooxazol-5-yl]-amide] was tested. Which IC50 did it give?
Its IC50 is 541 nM.

`O=C(Nc1ccc2sc(N3CCC[C@H](O)C3)nc2c1)c1ccc2c(c1)CCO2` [Example 114, 2,3-Dihydro-benzofuran-5-carboxylic acid [2-((S)-3-hydroxy-piperidin-1-yl)-benzothiazol-5-yl]-amide] was tested. Which IC50 did it give?
The IC50 was 2940 nM.

With `O=C(Nc1ccc2oc(N3CCCC3=O)nc2c1)c1ccc2c(c1)CCO2` [Example 38, 2,3-Dihydro-benzofuran-5-carboxylic acid [2-(2-oxo-pyrrolidin-1-yl)-benzooxazol-5-yl]-amide] as the compound, how does the IC50 read?
The IC50 was 1750 nM.

`O=C(Nc1ccc2sc(N3CCC3c3ccccc3)nc2c1)c1ccc2c(c1)CCO2` (racemic) [Example 111, rac-2,3-Dihydro-benzofuran-5-carboxylic acid [2-(2-phenyl-azetidin-1-yl)-benzothiazol-5-yl]-amide] was tested. Which IC50 did it give?
The IC50 was 1090 nM.

Which IC50 does the source give for `CN(CC1COC1)c1nc2cc(NC(=O)c3ccc4c(c3)CCO4)ccc2o1` [Example 56, 2,3-Dihydro-benzofuran-5-carboxylic acid [2-(methyl-oxetan-3-ylmethyl-amino)-benzooxazol-5-yl]-amide] here?
The IC50 was 906 nM.

Which IC50 does the source give for `O=C(Nc1ccc2oc(N3CCC34COC4)nc2c1)c1ccc2c(c1)CCO2` [Example 15, 2,3-Dihydro-benzofuran-5-carboxylic acid [2-(6-oxa-1-aza-spiro[3.3]hept-1-yl)-benzooxazol-5-yl]-amide] here?
The IC50 was 405 nM.

Which IC50 does the source give for `O=C(Nc1ccc2oc(N3CCC34CCOCC4)nc2c1)c1ccc2c(c1)CCCO2` [Example 145, Chroman-6-carboxylic acid [2-(7-oxa-1-aza-spiro[3.5]non-1-yl)-benzooxazol-5-yl]-amide] here?
The IC50 was 1400 nM.

`O=C(Nc1ccc2oc(N3CCC(F)(F)CC3)nc2c1)c1ccc2c(c1)OCO2` [Example 134, Benzo[1,3]dioxole-5-carboxylic acid [2-(4,4-difluoro-piperidin-1-yl)-benzooxazol-5-yl]-amide] was tested. Which IC50 did it give?
The IC50 was 870 nM.
